Like-named read-outs stand apart in the source and are kept apart here. Marks after values point to notes of the source that are not given here. Bridge positions count the residues as written; N and C are the ends. Ends that are not written are not given here.

Test [1] deals with T1, human urotensin II receptor (UT) (Homo sapiens, UniProt Q9UKP6).
T1 construct: expressed in transfected cells; host or cells: CHO cells (CHO-UT), stably transfected, G418 selection
T1 sequence (Q9UKP6 1-389): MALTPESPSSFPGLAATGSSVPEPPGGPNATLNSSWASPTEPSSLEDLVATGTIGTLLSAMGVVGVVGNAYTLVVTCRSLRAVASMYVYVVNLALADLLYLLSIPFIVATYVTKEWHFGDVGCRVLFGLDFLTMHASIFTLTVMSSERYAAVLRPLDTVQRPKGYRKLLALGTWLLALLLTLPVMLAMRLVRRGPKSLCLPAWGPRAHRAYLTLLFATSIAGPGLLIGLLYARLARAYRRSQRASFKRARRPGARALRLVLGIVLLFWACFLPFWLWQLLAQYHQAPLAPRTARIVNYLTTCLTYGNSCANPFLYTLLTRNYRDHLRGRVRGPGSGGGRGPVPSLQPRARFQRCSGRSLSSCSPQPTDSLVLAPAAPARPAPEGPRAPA
Put plainly: Competitive radioligand binding on CHO-UT cells. The procedure:
Transfected CHO cells expressing the human urotensin receptor (CHO-UT) were maintained in Ham-F12 medium with 10% fetal bovine serum (FBS), 2 mM L-glutamine, 100 UI/mL each of penicillin and streptomycin, and 400 μg/mL G418. […] Binding assays were following known literature procedures using CHO cells stably transfected with hGPR14. […] After 90 min of incubation at room temperature, cells were washed, lysed, and the cell-bound radioactivity was quantified using a γ-counter. […] The cells were then washed, lysed, and the radioactivity counted on a γ-counter (1470 Automatic Gamma Counter, Perkin Elmer). Binding and functional experiments were performed at least in triplicate and data, expressed as mean±S.E.M, were analyzed using the Prism software (Graph Pad Software, San Diego, Calif.). In all experiments, n represents the total number of animals studied or individual assays performed. The EC50, pEC50, pIC50 values as well as the Emax value were determined from the concentration-response curves using a sigmoidal dose-response fit with variable slope. […] The slope is calculated from the double reciprocal plot of equiactive concentrations of agonist in the presence and absence of antagonist.

For test [2], the system named is rat thoracic aorta rings. Format: cell-based. The settings on record: for Aortic Ring contraction pEC50: endothelium-denuded rat thoracic aorta; for Aortic Ring contraction Emax (%): percentage of contraction induced by KCl (40 mM); for Aortic Ring contraction Emax (%), maximum efficacy at 10^−5.5M: percentage of KCl (40 mM) contraction. The procedure: Binding and functional experiments were performed at least in triplicate and data, expressed as mean±S.E.M, were analyzed using the Prism software (Graph Pad Software, San Diego, Calif.). In all experiments, n represents the total number of animals studied or individual assays performed. The EC50, pEC50, pIC50 values as well as the Emax value were determined from the concentration-response curves using a sigmoidal dose-response fit with variable slope. […] The slope is calculated from the double reciprocal plot of equiactive concentrations of agonist in the presence and absence of antagonist.

The test system of test [3] is anaesthetized rats. The test can be described thus: Hemodynamic assessment (arterial blood pressure) in anaesthetized rats. In kind it is in vivo, rat. How it is done: Male Sprague-Dawley rats, weighing 350-400 g, were anaesthetized by isoflurane inhalation delivered in 100% oxygen (1 l/min) from an Ohmeda Tec 4 anaesthetic vaporizer (Somatechnology, Inc., Bloomfield, Conn., USA). Anaesthesia was maintained by mask inhalation of isoflurane vaporized at concentrations of up to 3% in the induction phase, at 1.5% during acute surgical procedures and at 0.8-1.0% during experimental observations. […]. […] A period of stabilisation of 30 min was observed and the following experimental protocols were then performed and arterial blood pressure was evaluated. During isoflurane inhalation, no breathing complications or changes in blood pressure were observed. […].
In a preliminary study, individual rats received a single i.v. injection of hUII ranging from 1 to 30 nmol/kg. A dose-response curve, reflecting the effect of hUII on the change in blood pressure, was then determined.
In this set of experiments, five groups of rats were used. […] […]. Hemodynamic changes were continuously captured by the pressure probe over a period of 1 h. The maximum rise and the maximum drop in blood pressure was determined and analyzed using the PowerLab software (ADInstruments, Colorado Springs, Colo., USA).
In the control group, the rats received two doses of hUII (10 nmol/kg) with a 30 min interval between the first and second injection.

As for `CC(C)[C@H](NC(=O)[C@@H]1CSSC[C@H](NC(=O)[C@H](C)N)C(=O)N[C@@H](Cc2ccccc2)C(=O)N[C@H]2Cc3c([nH]c4ccccc34)CN(C2=O)[C@@H](CCCCN)C(=O)N[C@@H](Cc2ccc(O)cc2)C(=O)N1)C(=O)O` [Compound 12, H-Ala-Cys-Phe-Aia-Lys-Tyr-Cys-Val-OH], in test [1], the “Binding affinity for UT (in words)” value is listed as “low binding affinity”. Further, in test [2], the EC50 (usually the concentration needed to bring the measured effect to its halfway point) turned out to be 181 nM, the “Aortic Ring contraction pEC50” value is 6.42 ± 0.13 and the “Aortic Ring contraction Emax (%)” value is reported as 51 ± 4%.

For `CC(C)[C@H](NC(=O)[C@@H]1CSSC[C@H](NC(=O)[C@H](C)N)C(=O)N[C@@H](Cc2ccccc2)C(=O)N2CCc3ccccc3[C@H]2C(=O)N[C@@H](CCCCN)C(=O)N[C@@H](Cc2ccc(O)cc2)C(=O)N1)C(=O)O` [Compound 16, H-Ala-Cys-Phe-Tiq-Lys-Tyr-Cys-Val-OH], the “Binding affinity for UT (in words)” value in test [1] is “high binding affinity”. Besides, in test [2], the “Agonist behaviour in aortic ring contraction (in words)” value (shortened to “Agonist behaviour”) is “contractile efficacy and potency comparable to the endogenous peptides”; the 50% effective concentration (EC50) is 22 nM; the “Aortic Ring contraction pEC50” value stood at 7.66 ± 0.11; the “Aortic Ring contraction Emax (%)” value is 126 ± 5%.

With `CC(C)[C@H](NC(=O)[C@@H]1CSSC[C@H](NC(=O)[C@H](C)N)C(=O)N[C@@H](Cc2ccccc2)C(=O)N[C@@H](C(c2ccccc2)c2ccccc2)C(=O)N[C@@H](CCCCN)C(=O)N[C@@H](Cc2ccc(O)cc2)C(=O)N1)C(=O)O` [Compound 9, H-Ala-Cys-Phe-Dip-Lys-Tyr-Cys-Val-OH], in test [2], the “Agonist behaviour” value is “weak UT agonist”; the EC50 is > 1000 nM; the “Aortic Ring contraction pEC50” value was <6; the “Aortic Ring contraction Emax (%), maximum efficacy at 10^−5.5M” value is reported as 23^d %.

Take `CC(C)[C@H](NC(=O)[C@@H]1CSSC[C@H](NC(=O)[C@H](C)N)C(=O)N[C@@H](Cc2ccccc2)C(=O)N2Cc3ccccc3C[C@H]2C(=O)N[C@@H](CCCCN)C(=O)N[C@@H](Cc2ccc(O)cc2)C(=O)N1)C(=O)O` [Compound 18, H-Ala-Cys-Phe-Tic-Lys-Tyr-Cys-Val-OH]: the “Binding affinity for UT (in words)” value in test [1] is reported as “dramatic loss of binding affinity”. For the same compound, in test [2], the EC50 is > 1000 nM; the “Aortic Ring contraction pEC50” value is recorded as <6; the “Aortic Ring contraction Emax (%), maximum efficacy at 10^−5.5M” value stood at 43%.

In the case of `CC(C)[C@H](NC(=O)[C@@H]1CSSC[C@H](NC(=O)[C@H](C)N)C(=O)N[C@@H](Cc2ccccc2)C(=O)N[C@@H]2Cc3c([nH]c4ccccc34)CN(C2=O)[C@@H](CCCCN)C(=O)N[C@@H](Cc2ccc(O)cc2)C(=O)N1)C(=O)O` [Compound 13, [D-Aia^4]URP], the EC50 in test [2] came to 159 nM.

Turning to `CC(C)[C@H](NC(=O)[C@@H]1CSSC[C@H](NC(=O)[C@H](C)N)C(=O)N[C@@H](Cc2ccccc2)C(=O)N[C@@H](Cc2ccc(I)cc2)C(=O)N[C@@H](CCCCN)C(=O)N[C@@H](Cc2ccc(O)cc2)C(=O)N1)C(=O)O` [Compound 5, H-Ala-Cys-Phe-Phe(I)-Lys-Tyr-Cys-Val-OH], the “Drop in binding affinity on substitution of Trp” value in test [1] (versus native peptide) was 4 fold.

Take `CC(C)[C@H](NC(=O)[C@@H]1CSSC[C@H](NC(=O)[C@H](C)N)C(=O)N[C@@H](Cc2ccccc2)C(=O)N2CCc3ccccc3[C@@H]2C(=O)N[C@@H](CCCCN)C(=O)N[C@@H](Cc2ccc(O)cc2)C(=O)N1)C(=O)O` [Compound 17, [D-Tiq^4]URP]: in test [2], a half-maximal effect (EC50) was put at 21 nM, the “Aortic Ring contraction pEC50” value was found to be 7.68 ± 0.17 and the “Aortic Ring contraction Emax (%)” value was determined as 113 ± 7%.

Take `CC(C)[C@H](NC(=O)[C@@H]1CSSC(C)(C)[C@H](NC(=O)[C@H](C)N)C(=O)N[C@@H](Cc2ccccc2)C(=O)N2CCc3ccccc3[C@H]2C(=O)N[C@@H](CCCCN)C(=O)N[C@@H](Cc2ccc(O)cc2)C(=O)N1)C(=O)O` [Compound 20, H-Ala-Pen-Phe-Tiq-Lys-Tyr-Cys-Val-OH]: the IC50 (as a rule, the concentration needed to halve the response being measured) in test [1] (125I-hUII 0.2 nM, CHO-UT cells, 95% confidence limits in parentheses, read-out: Binding IC50) is > 10000 nM.

Take `CC(C)[C@H](NC(=O)[C@@H]1CSSC[C@H](NC(=O)[C@H](C)N)C(=O)N[C@@H](Cc2ccccc2)C(=O)N2Cc3ccccc3C[C@@H]2C(=O)N[C@@H](CCCCN)C(=O)N[C@@H](Cc2ccc(O)cc2)C(=O)N1)C(=O)O` [Compound 19, [D-Tic^4]URP]: in test [2], the EC50 turned out to be 259 nM, the “Aortic Ring contraction pEC50” value is on record as 6.08 ± 0.04 and the “Aortic Ring contraction Emax (%)” value stood at 128 ± 12%.

Take `CC(C)[C@H](NC(=O)[C@@H]1CSSC[C@H](NC(=O)[C@H](C)N)C(=O)N[C@@H](Cc2ccccc2)C(=O)N[C@H](Cc2cccc3ccccc23)C(=O)N[C@@H](CCCCN)C(=O)N[C@@H](Cc2ccc(O)cc2)C(=O)N1)C(=O)O` [Compound 4, [D-1-Nal^4]URP]: in test [2], a half-maximal response (EC50) required 825 nM; the “Aortic Ring contraction pEC50” value was 6.08 ± 0.04; the “Aortic Ring contraction Emax (%), maximum efficacy at 10^−5.5M” value came to 34%.

Regarding “[Pro^7]hUII: hUII in which the Trp residue is replaced by a Pro moiety (ETPDCFPKYCV-OH; disulfide 5-10 (inferred))”, in test [2], the “Agonist behaviour” value is recorded as “weak agonistic effect” and the “Aortic Ring contraction Emax (%), maximum efficacy at 10^−5.5M” value was found to be 69%.

With `CC(C)[C@H](NC(=O)[C@@H]1CSSC[C@H](NC(=O)[C@H](CC(=O)O)NC(=O)[C@@H]2CCCN2C(=O)[C@@H](NC(=O)[C@@H](N)CCC(=O)O)[C@@H](C)O)C(=O)N[C@@H](Cc2ccccc2)C(=O)N[C@@H](Cc2c[nH]c3ccccc23)C(=O)N[C@@H](CCCCN)C(=O)N[C@@H](Cc2ccc(O)cc2)C(=O)N1)C(=O)O` [Compound 1, reference compound], in test [2], the half-maximal effective concentration (EC50) came out at 1 nM, the “Aortic Ring contraction pEC50” value came out at 9.08 ± 0.25 and the “Aortic Ring contraction Emax (%)” value is on record as 117 ± 7%. In test [2] (listed as hUII), the “Aortic Ring contraction pEC50” value is given as 8.98±0.21 and the “Aortic Ring contraction Emax (%)” value is given as 124±8%. Also, in test [3] (0.01 μmol/kg i.v.), the “Hemodynamic response to bolus i.v. injection” value is recorded as “biphasic hemodynamic response”, the “Time of hypotension nadir” value is given as ~6 min and the “Time of pressor phase peak” value was ~1 min. Moreover, the “Response to repeated injections” value in test [3] (10 nmol/kg twice, 30 min interval) is “equivalent biphasic responses”. For the same compound, the “Effect of prior hUII injection on hypotensive effect of URP” value in test [3] (URP injected 30 min after hUII, 10 nmol/kg) is on record as “significantly reduced”. For the same compound, in test [3] (single i.v. injection, 1 to 30 nmol/kg tested), the “Dose giving the most significant drop in blood pressure” value stood at 10 nmol/kg.

Regarding `CC(C)[C@H](NC(=O)[C@@H]1CSSC[C@H](NC(=O)[C@H](C)N)C(=O)N[C@@H](Cc2ccccc2)C(=O)N[C@@H](Cc2cccc3ccccc23)C(=O)N[C@@H](CCCCN)C(=O)N[C@@H](Cc2ccc(O)cc2)C(=O)N1)C(=O)O` [Compound 3, H-Ala-Cys-Phe-Nal-Lys-Tyr-Cys-Val-OH], in test [2], the “Agonist behaviour” value is recorded as “almost equipotent analog”, the EC50 was 54 nM, the “Aortic Ring contraction pEC50” value is on record as 7.27 ± 0.24 and the “Aortic Ring contraction Emax (%)” value came out at 86 ± 8%.

Consider `CC(C)[C@H](NC(=O)[C@@H]1CSSC[C@H](NC(=O)[C@H](C)N)C(=O)N[C@@H](Cc2ccccc2)C(=O)N[C@H](C(C)(C)C)C(=O)N[C@@H](CCCCN)C(=O)N[C@@H](Cc2ccc(O)cc2)C(=O)N1)C(=O)O` [Compound 8, [D-Tbg^4]URP], for which, in test [2], the EC50 stood at 262 nM.

Values taken from US9340575B2, “Agonists and antagonists of the urotensinergic system” (INSTITUT NATIONAL DE LA RECHERCHE SCIENTIFIQUE, priority 2011, dated 2016).
